Experimental data taken from patent publication US8344160B2, “Pyrrolone melanin concentrating hormone receptor-1 antagonists” (Bristol-Myers Squibb Company, priority 2008, dated 2013).
Counter-ions that a name gives are not always drawn.

What was measured:
[1] = biological target: T1, mutated (E4Q, A5T) hMCHR1 receptor (Homo sapiens, UniProt Q99705, A5T/E4Q); assay: Radioligand binding assay for assessment of MCHR1 activity; conditions: membranes from stably transfected HEK-293 cells; competition with [Phe13,[125I]Tyr19]-MCH
T1 construct: expressed in transfected cells; host or cells: HEK-293 (stably transfected), membrane preparation
T1 sequence (Q99705 whole entry E4Q/A5T): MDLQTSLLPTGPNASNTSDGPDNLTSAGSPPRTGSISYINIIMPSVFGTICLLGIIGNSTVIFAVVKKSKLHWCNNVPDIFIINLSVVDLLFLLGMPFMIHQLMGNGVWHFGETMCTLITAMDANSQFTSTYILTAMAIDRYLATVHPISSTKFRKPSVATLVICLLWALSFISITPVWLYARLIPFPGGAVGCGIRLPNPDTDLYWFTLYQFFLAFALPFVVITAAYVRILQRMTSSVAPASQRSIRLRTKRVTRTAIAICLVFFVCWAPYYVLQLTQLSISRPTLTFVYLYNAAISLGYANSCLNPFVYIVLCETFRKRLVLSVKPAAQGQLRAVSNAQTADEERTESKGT
Experimental: Radioligand Binding Assay for Assessment of MCHR1 Activity
Membranes from stably transfected HEK-293 cells expressing a mutated (E4Q, A5T) hMCHR1 receptor were prepared by dounce homogenization and differential centrifugation. Binding experiments were carried out with 0.5-1.0 ug of membrane protein incubated in a total of 0.2 ml in 25 mM HEPES (pH 7.4) with 10 mM MgCl2, 2 mM EGTA, and 0.1% BSA (Binding Buffer) for 90 min. For competition binding assays, reactions were carried out in the presence of with 0.06-0.1 nM [Phe^13, [^125I]Tyr^19]-MCH and increasing concentrations of unlabeled test molecules. Reactions were terminated by rapid vacuum filtration over 96 well-GFC UNIFILTER® plates pre-coated with 0.075 ml binding buffer containing 1% BSA, and washed 3 times with 0.4 ml of Phospho-buffered Saline (pH 7.4) containing 0.01% TX-100. Filters were dried, 0.05 ml microscint 20 was added to each well and radioactivity was subsequently quantified by scintillation counting on a TOPCOUNT® microplate scintillation counter (Packard). Inhibitory constants were determined by nonlinear least squares analysis using a four parameter logistic equation.

[2] = Assessment of in vivo MCHR activity: body weight of rats with a choice of chow and high fat/high sugar diet; design: species or system rat; conditions: male Sprague Dawley rats, 30 mg/kg p.o. daily day 0 through day 4, dosed as prodrug (Examples 57, 68, 66)
Experimental: Male SPRAGUE DAWLEY® (CD, Charles River Breeding Laboratory) rats weighing approximately 240 grams were place in individual plastic cages with ALPHADRI® bedding. The room was maintained at 72° F. and 50% humidity, and a 12/12 light dark cycle with lights out at 1600 hours. The rats were conditioned for 5 days prior to the start of the study to having a choice of foods. A normal chow (HARLAN TEKLAD®, 2018) that contains 18% protein, 5% fat and 73% carbohydrate and a high fat high sugar diet (Research Diets (D2327)) that contains 20% protein, 40% fat and 40% carbohydrate where the carbohydrate is entirely sucrose and the fat is soybean and coconut oil. […] Body weight and consumption of both kinds of food as well as water intake were measured daily. Water was available ad lib throughout the study. Food consumption is presented as daily caloric consumption which is the sum of grams of chow multiplied by the Kcal per gram (3.5) plus grams of high fat high sugar multiplied by Kcal per gram (4.59).
Baseline body weight was measured prior to drug treatment on day 0 of the study. Baseline food consumption was the average of the 3 days prior to the first drug treatment. Drug was administered daily p.o. at 2.0 ml/kg at 1500 hours beginning on day 0 and continuing daily through day 4 as a suspension in 0.5% methyl cellulose, 0.1% Tween 80 in water at 3.0, 10 and 30 mg/kg p.o. All data were evaluated using ANOVA and Fishers PLSD statistics.

Ki [1]	Compound	Weight Reduction versus Vehicle [2]
0.6 nM	COc1cc(N2Cc3cc(-c4ccc(Cl)cc4)sc3C2=O)ccc1OC[C@H](O)CS(C)(=O)=O [Example 15]	–
68 nM	COc1cc(N2Cc3nc(-c4ccc(Cl)cc4)sc3C2=O)ccc1OCC(C)(C)O [Example 52, 2-(4-Chlorophenyl)-5-(4-(2-hydroxy-2-methylpropoxy)-3-methoxyphenyl)-4H-pyrrolo[3,4-d]thiazol-6(5H)-one]	–
248 nM	COc1cc(N2Cc3nc(-c4ccc(Cl)cc4)oc3C2=O)ccc1OCC(C)(C)O [Example 53, 2-(4-Chlorophenyl)-5-(4-(2-hydroxy-2-methylpropoxy)-3-methoxyphenyl)-4H-pyrrolo[3,4-d]oxazol-6(5H)-one]	–
–	COc1cc(N2Cc3cc(-c4ccc(Cl)cn4)sc3C2=O)ccc1OC[C@H](O)CS(C)(=O)=O [Example 31]	3.2%
0.3 nM	CN[C@H]1CCN(c2ccc(N3Cc4cc(-c5ccc(Cl)cc5)sc4C3=O)cn2)C1 [Example 10]	–
13.3 nM	COc1cc(N2Cc3cc(-c4ccc(Cl)cc4)oc3C2=O)ccc1OCC(C)(C)O [Example 54, 2-(4-Chlorophenyl)-5-(4-(2-hydroxy-2-methylpropoxy)-3-methoxyphenyl)-4H-furo[3,2-c]pyrrol-6(5H)-one]	–
1290 nM	COc1cc(N2Cc3cc(-c4ccncc4)sc3C2=O)ccc1OCC(C)(C)O [Example 43]	–
33.6 nM	COc1cc(N2Cc3cc(-c4ncc(Cl)cn4)sc3C2=O)ccc1N1CCC(O)CC1 [Example 39]	–
17.6 nM	COc1cc(N2Cc3cc(-c4ncc(Cl)cn4)sc3C2=O)ccc1OCC(C)(C)OC(=O)CN [Example 68]	–
0.2 nM	CN(C)[C@@H]1CCN(c2ccc(N3Cc4cc(-c5ccc(Cl)cc5)sc4C3=O)cn2)C1 [Example 21, (R)-2-(4-Chlorophenyl)-5-(6-(3-(dimethylamino)pyrrolidin-1-yl)pyridin-3-yl)-4H-thieno[3,2-c]pyrrol-6(5H)-one]	–
30 nM	COc1cc(N2Cc3cc(-c4ccc(Cl)cc4)sc3C2=O)ccc1O [Example 6]	–
0.2 nM	COc1cc(N2Cc3cc(-c4ccc(Cl)cc4)sc3C2=O)ccc1OCCN1CCCC1 [Example 3]	–
2.5 nM	COc1cc(N2Cc3cc(-c4ccc(Cl)cc4)sc3C2=O)ccc1OC[C@H](O)C1CC1 [Example 2]	–
17 nM	COc1cc(N2Cc3cc(-c4ncc(Cl)cn4)sc3C2=O)ccc1OCC(C)(C)O [Example 33]	4.8%
21.6 nM	COc1cc(N2Cc3cc(-c4ccc(Cl)nc4)sc3C2=O)ccc1OCC(C)(C)O [Example 44]	–
1.9 nM	COc1cc(N2Cc3cc(-c4ccc(Cl)cc4)sc3C2=O)ccc1OCC(C)(C)O [Example 1, 2-(4-Chlorophenyl)-5-(4-(2-hydroxy-2-methylpropoxy)-3-methoxyphenyl)-4H-thieno[3,2-c]pyrrol-6(5H)-one]	3.9%
107 nM	COc1cc(N2Cc3cc(-c4ccccn4)sc3C2=O)ccc1OCC(C)(C)O [Example 49, 5-(4-(2-Hydroxy-2-methylpropoxy)-3-methoxyphenyl)-2-(pyridin-2-yl)-4H-thieno[2,3-c]pyrrol-6(5H)-one, trifluoroacetic acid salt]	–
2.5 nM	COc1cc(N2Cc3cc(-c4ccc(Cl)cn4)sc3C2=O)ccc1OCC(O)C(F)(F)F (stereo not drawn) [Example 27]	–

Compound	Ki [1]	Weight Reduction versus Vehicle [2]
5-(4-(2-Hydroxy-2-methylpropoxy)-3-methoxyphenyl)-2-(6-methoxypyridin-3-yl)-4H-thieno[3,2-c]pyrrol-6(5H)-one, trifluoroacetic acid salt [Example 41]	800 nM	–
